Results from patent US9493466B2, “Treatment of cancer with TOR kinase inhibitors” (Signal Pharmaceuticals, LLC, priority 2011, dated 2016).

Tests used:
PLC-PRF-5 = experiment: Growth inhibition assay for HCC lines; type: cell-based; details: PLC-PRF-5, 96 hours, DMEM + 10% FBS
Procedure: (§1) Growth Inhibition Assay for HCC and NHL Lines. The seeding density for each cell line was optimized to ensure assay linearity in 384-well plates.
(§2) Compound 1 was dissolved in dimethyl sulfoxide (DMSO) to prepare a 10 mM stock solution. A serial titration was performed to produce a working concentration range of […] to 10 mM. Aliquots to produce final concentrations of 1.5 nM to 10 μM were spotted via an acoustic dispenser (EDC ATS-100) into an empty 384-well plate. Compound 1 was spotted in a 10-point serial dilution fashion (3-fold dilution) in duplicate within the plate. The DMSO concentration was kept constant for a final assay concentration of 0.1% DMSO. Plates were replicated for use with different cell lines and testing periods. After compound plate replication, all plates were sealed (Agilent ThermoLoc) and stored at −20° C. for up to 1 month. […] When ready for testing, plates were removed from the freezer, thawed, and unsealed just prior to the addition of the test cells. Prior to testing, cells were grown and expanded in culture flasks to provide sufficient amounts of starting material. Cells were then diluted to the appropriate densities and added directly to the compound-spotted 384-well plates. Cells were allowed to grow for 96 hours at 37° C./5% CO2. At the time when compound was added (t0), initial cell number was assessed via a viability assay (Cell Titer-Glo) by quantifying the level of luminescence generated by ATP present in viable cells. After 96 hours, cell viability of compound-treated cells was assessed via Cell Titer-Glo and luminescence measurement. Cell lines were assayed for growth inhibition by Compound 1 in at least 3 independent tests. A control cell line (the lung tumor cell line, A549) was included in each of the assays. The compound response against this control cell line was monitored closely to enable comparison of the data generated through the assay period. All data were normalized and presented as a percentage of the DMSO-treated cells. Results were then expressed as a GI50 value. The GI50 value corrects for the cell count at time zero. In addition, the IC50 value of Compound 1 for each cell line was calculated.

HuH-7 = experiment: Growth inhibition assay for HCC lines; type: cell-based; details: HuH-7, 96 hours, DMEM + 10% FBS
Procedure: as §1, §2

SNU-423 = experiment: Growth inhibition assay for HCC lines; type: cell-based; details: SNU-423, 96 hours, RPMI 1640 + 10% FBS
Procedure: as §1, §2

SNU-387 = experiment: Growth inhibition assay for HCC lines; type: cell-based; details: SNU-387, 96 hours, RPMI 1640 + 10% FBS
Procedure: as §1, §2

SNU-475 = experiment: Growth inhibition assay for HCC lines; type: cell-based; details: SNU-475, 96 hours, RPMI 1640 + 10% FBS
Procedure: as §1, §2

HepG2 = experiment: Growth inhibition assay for HCC lines; type: cell-based; details: HepG2, 96 hours, DMEM + 10% FBS
Procedure: as §1, §2

SK-HEP-1 = experiment: Growth inhibition assay for HCC lines; type: cell-based; details: SK-HEP-1, 96 hours, DMEM + 10% FBS
Procedure: as §1, §2

Hep3B = experiment: Growth inhibition assay for HCC lines; type: cell-based; details: 96 hours, DMEM + 10% FBS
Procedure: as §1, §2

[1] = Storage stability of compound-spotted plates (repeat testing in A549); type: physicochemical; details: DMSO-spotted sealed 384-well plates at −20° C.
Procedure: Compound 1 was dissolved in dimethyl sulfoxide (DMSO) to prepare a 10 mM stock solution. A serial titration was performed to produce a working concentration range of […] to 10 mM. Aliquots to produce final concentrations of 1.5 nM to 10 μM were spotted via an acoustic dispenser (EDC ATS-100) into an empty 384-well plate. Compound 1 was spotted in a 10-point serial dilution fashion (3-fold dilution) in duplicate within the plate. The DMSO concentration was kept constant for a final assay concentration of 0.1% DMSO. Plates were replicated for use with different cell lines and testing periods. […] When ready for testing, plates were removed from the freezer, thawed, and unsealed just prior to the addition of the test cells. […] At the time when compound was added (t0), initial cell number was assessed via a viability assay (Cell Titer-Glo) by quantifying the level of luminescence generated by ATP present in viable cells. After 96 hours, cell viability of compound-treated cells was assessed via Cell Titer-Glo and luminescence measurement. […] The compound response against this control cell line was monitored closely to enable comparison of the data generated through the assay period. […] Results were then expressed as a GI50 value. […] In addition, the IC50 value of Compound 1 for each cell line was calculated.

U87MG tumors = experiment: U87MG human glioblastoma xenograft model (Compound 2); type: in vivo, SCID mice
Procedure: U87MG Human Glioblastoma Xenograft Model (Compound 2). Efficacy Studies: Groups of female SCID mice bearing U87MG tumors (n=8-10/group) were dosed orally with vehicle or Compound 2 (doses ranged between 0.05 and 1 mg/kg) throughout the study, starting when tumor volumes reached approximately 170-180 mm^3. The twice daily (BID) dose groups were dosed with a 10-hour separation between morning and evening doses. In the positive control group, rapamycin was administered every third day (Q3D) via intraperitoneal (IP) route. At the end of each study, plasma and/or tumor samples were collected.
Cell Line and Culture. U87MG cell line was obtained from American Tissue Culture Collection (ATCC) (Gaithersburg, Md.) and grown in growth medium containing MEM, 2 mM L-glutamine, 0.1 mM non-essential amino acids, and 1 mM sodium pyruvate plus 10% FBS. The cells were detached from tissue culture flasks using trypsin-EDTA. After centrifugation, the cell pellets were suspended in PBS and cells counted using a hemocytometer. The final volume was adjusted to 5×10^6 cells/0.1 mL of PBS.
Tumor Cell Inoculation. […]
Randomization of Animals. […] The tumor of each animal was measured and animals with tumors ranging between 170 and 180 mm^3 were included in the study. […]
Tumor Measurements. Tumor volumes were determined prior to the initiation of treatment and were considered as the starting volumes. Thereafter, tumors were measured twice a week for the duration of the study. The long and short axes of each tumor were measured using a digital caliper in millimeters. Tumor volumes were calculated using the formula: width^2×length/2. […]
Body Weight Measurements. Initial body weights were recorded prior to the initiation of treatment using a digital scale. The percentage body weight change during the course of the study was calculated using initial body weight measurements. Body weights of each animal were measured twice a week at the same time as the tumor measurements. Body weights were measured more frequently if significant decreases were noted during the course of the study.

CO[C@H]1CC[C@H](N2C(=O)CNc3ncc(-c4ccc(C(C)(C)O)nc4)nc32)CC1 [Compound 1, 7-(6-(2-hydroxypropan-2-yl)pyridin-3-yl)-1-((1r,4r)-4-methoxycyclohexyl)-3,4-dihydropyrazino-[2,3-b]pyrazin-2(1H)-one]
GI50 (PLC-PRF-5): 0.31 ± 0.07 µM | IC50 (PLC-PRF-5): 0.43 ± 0.07 µM | GI50 (HuH-7): 0.07 ± 0.03 µM | IC50 (HuH-7): 0.1 ± 0.04 µM | GI50 (SNU-423): 0.3 ± 0.05 µM | IC50 (SNU-423): 0.48 ± 0.06 µM | GI50 (SNU-387): 1.26 ± 0.47 µM | IC50 (SNU-387): 2.47 ± 0.93 µM | GI50 (SNU-475): 0.46 ± 0.09 µM | IC50 (SNU-475): 0.69 ± 0.14 µM | GI50 (HepG2): 0.24 ± 0.06 µM | IC50 (HepG2): 0.32 ± 0.13 µM | GI50 (SK-HEP-1): 0.27 ± 0.04 µM | IC50 (SK-HEP-1): 0.33 ± 0.07 µM | GI50 (Hep3B): 0.26 ± 0.07 µM | IC50 (Hep3B): 0.34 ± 0.11 µM | stable under the storage conditions [1]: at least 1 month

CCN1C(=O)CNc2ncc(-c3ccc(-c4nc[nH]n4)nc3C)nc21 [Compound 2, 1-ethyl-7-(2-methyl-6-(1H-1,2,4-triazol-3-yl)pyridin-3-yl)-3,4-dihydropyrazino[2,3-b]pyrazin-2(1H)-one]
average tumor volumes compared with vehicle (U87MG tumors; 0.05, 0.1 and 0.3 mg/kg BID oral, Day 35): significantly smaller (p<0.001) | average tumor volumes compared with vehicle (U87MG tumors; 0.1, 0.5 and 1 mg/kg QD oral, Day 34): significantly smaller (p<0.001) | lowest efficacious dose (approximately 65% tumor volume inhibition) (U87MG tumors; QD oral, 3 weeks): 0.5 mg/kg
